Assay [1] concerns the target MDM2-p53 interaction (in vitro translated MDM2) (Homo sapiens (Human), UniProt Q00987). The assay is described as follows: MDM2-p53 interaction 96-well plate binding assay (ELISA). Particulars: for MDM2 % inhibition at 0.0030: at 0.0030 μM; for MDM2 % inhibition at 0.0010: at 0.0010 μM. A general note: An ELISA detects its analyte on a solid surface through an enzyme-linked reagent.

A further assay concerns SJSA-1. The experiment in a line: Protocol B: CellTiter-Glo cell viability assay. Particulars: Protocol B; for IC50: read-out: SJSA1 IC50 (μM) (Protocol B). On the technique in general: In ATP-based viability assays light output follows the ATP content of the culture.

Where two headings read alike, the source gives them in different places.

Sequence of MDM2-p53 interaction (in vitro translated MDM2) (Q00987 whole entry): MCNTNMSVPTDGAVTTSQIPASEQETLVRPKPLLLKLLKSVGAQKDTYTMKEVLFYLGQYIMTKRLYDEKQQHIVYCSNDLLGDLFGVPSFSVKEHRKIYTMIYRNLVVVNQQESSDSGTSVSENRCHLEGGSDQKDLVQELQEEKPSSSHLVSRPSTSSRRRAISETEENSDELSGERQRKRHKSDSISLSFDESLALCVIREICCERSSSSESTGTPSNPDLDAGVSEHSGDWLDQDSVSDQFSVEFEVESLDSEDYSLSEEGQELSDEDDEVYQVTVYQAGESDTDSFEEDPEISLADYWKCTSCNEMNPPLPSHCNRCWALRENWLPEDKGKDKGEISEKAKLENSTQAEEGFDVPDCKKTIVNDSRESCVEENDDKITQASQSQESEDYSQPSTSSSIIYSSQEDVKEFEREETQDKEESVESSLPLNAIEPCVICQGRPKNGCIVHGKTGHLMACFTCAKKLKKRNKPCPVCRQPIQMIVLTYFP

In general, IC50 refers to the point on the concentration scale where inhibition reaches its midpoint. With “2-{[(1R)-1-(4-chlorophenyl)-7-fluoro-5-[(1R)-1-(4-fluorooxan-4-yl)-1-hydroxypropyl]-3-oxo-1-[(3S)-oxolan-3-yloxy]-2,3-dihydro-1H-isoindol-2-yl]methyl}pyrimidine-5-carbonitrile [Example 507]”, the “MDM2 % inhibition at 0.0030” value in assay [1] stood at 65%@0.0030. For the same substance, the concentration for half-maximal inhibition (IC50) in the assay with SJSA-1 turned out to be 0.02 µM.
As to “6-{[(1R)-1-(4-chlorophenyl)-7-fluoro-5-[1-hydroxy-1-(1-methyl-1H-pyrazol-4-yl)propyl]-3-oxo-1-[(3S)-oxolan-3-yloxy]-2,3-dihydro-1H-isoindol-2-yl]methyl}pyridine-3-carbonitrile [Example 359]”, the “MDM2 % at concentration” value in assay [1] (at 0.10 μM) was found to be 50%@0.10. Further, the IC50 in the assay on SJSA-1 amounted to 3.9 µM.
For “(3R)-3-(4-chlorophenyl)-2-[(3,5-difluoropyridin-2-yl)methyl]-4-fluoro-6-[1-hydroxy-1-(1-methyl-1H-pyrazol-4-yl)ethyl]-3-[(1-hydroxycyclopropyl)methoxy]-2,3-dihydro-1H-isoindol-1-one [Example 351]”, the “MDM2 % at concentration” value in assay [1] (at 0.10 μM) was 25%@0.10. For the same substance, the IC50 with SJSA-1 was 4.3 µM.
Take “(3R)-3-(4-chlorophenyl)-2-[(5-chloropyrimidin-2-yl)methyl]-4-fluoro-6-{1-hydroxy-1-[trans-4-hydroxycyclohexyl]propyl}-3-(2-hydroxyethoxy)-2,3-dihydro-1H-isoindol-1-one [Example 519]”: the “MDM2 % inhibition at 0.030” value in assay [1] (at 0.030 μM) was determined as 35%@0.030. The IC50 in the assay on SJSA-1 was 1.9 µM.
For “2-{[(1R)-1-(4-chlorophenyl)-7-fluoro-5-[(1S)-1-(4-fluorooxan-4-yl)-1-hydroxypropyl]-3-oxo-1-[cis-3-hydroxycyclobutoxy]-2,3-dihydro-1H-isoindol-2-yl]methyl}pyrimidine-5-carbonitrile [Example 506]” the same measures were 36%@0.030 and 3.4 µM.
For the substance “(3R)-2-[(5-chloro-1-oxo-1λ^5-pyridin-2-yl)methyl]-3-(4-chlorophenyl)-4-fluoro-6-[1-hydroxy-1-(1-methyl-1H-pyrazol-4-yl)ethyl]-3-{[1-(hydroxymethyl)cyclopropyl]methoxy}-2,3-dihydro-1H-isoindol-1-one [Example 407]”, in assay [1], the “MDM2 % at concentration” value was found to be 62%@0.0010. Also, in the assay on SJSA-1, the IC50 turned out to be 0.58 µM.
For the substance “(3R)-3-(4-chlorophenyl)-2-[(5-chloropyridin-2-yl)methyl]-4-fluoro-3-[(1-{[(2-hydroxyethyl)amino]methyl}cyclopropyl)methoxy]-6-(2-hydroxypropan-2-yl)-2,3-dihydro-1H-isoindol-1-one [Example 326]”, in assay [1] (at 0.030 μM), the “MDM2 % at concentration” value is 50%@0.030. The IC50 in the assay with SJSA-1 amounted to 2 µM.
“2-{[(1R)-1-(4-chlorophenyl)-7-fluoro-5-[1-(4-fluoropiperidin-4-yl)-1-hydroxypropyl]-3-oxo-1-[(3S)-oxolan-3-yloxy]-2,3-dihydro-1H-isoindol-2-yl]methyl}pyrimidine-5-carbonitrile [Example 547]”: in assay [1], the “MDM2 % inhibition at 0.0010” value is reported as 82%@0.0010. Further, the IC50 in the assay on SJSA-1 was 0.96 µM.
With “5-{[(1R)-1-(4-chlorophenyl)-7-fluoro-5-[1-hydroxy-1-(1-methyl-1H-imidazol-4-yl)propyl]-3-oxo-1-[(3S)-oxolan-3-yloxy]-2,3-dihydro-1H-isoindol-2-yl]methyl}pyridine-2-carbonitrile [Example 432]”, the “MDM2 % inhibition at 0.030” value in assay [1] (at 0.030 μM) amounted to 45%@0.030. In addition, the IC50 in the assay on SJSA-1 came to 6.2 µM.
As to “(3R)-6-[1-(1-acetylpiperidin-4-yl)-1-hydroxyethyl]-2-{[5-chloro-3-(hydroxymethyl)pyridin-2-yl]methyl}-3-(4-chlorophenyl)-4-fluoro-3-methoxy-2,3-dihydro-1H-isoindol-1-one [Example 424]”, the “MDM2 % inhibition at 0.0030” value in assay [1] turned out to be 45%@0.0030. For the same substance, the IC50 with SJSA-1 was 0.69 µM.
With “(3R)-3-(4-Chlorophenyl)-2-[(5-chloropyrimidin-2-yl)methyl]-4-fluoro-6-[1-hydroxy-1-(piperidin-4-yl)propyl]-3-[(3S)-oxolan-3-yloxy]-2,3-dihydro-1H-isoindol-1-one [Example 448]”, the “MDM2 % inhibition at 0.0010” value in assay [1] is recorded as 84%@0.0010. In the assay on SJSA-1, the IC50 came to 0.86 µM.
As to “6-{[(1R)-1-(4-chlorophenyl)-7-fluoro-3-oxo-1-[(3S)-oxolan-3-yloxy]-5-[2,2,2-trifluoro-1-hydroxy-1-(1-methyl-1H-pyrazol-4-yl)ethyl]-2,3-dihydro-1H-isoindol-2-yl]methyl}pyridine-3-carbonitrile [Example 371]”, the “MDM2 % inhibition at 0.030” value in assay [1] (at 0.030 μM) was found to be 43%@0.030. In addition, the IC50 in the assay on SJSA-1 is 2.3 µM.
Turning to “(3R)-3-(4-chlorophenyl)-2-[(5-chloropyrimidin-2-yl)methyl]-4-fluoro-3-[(3-fluorooxetan-3-yl)methoxy]-6-[2-hydroxy-1-(piperazin-1-yl)butan-2-yl]-2,3-dihydro-1H-isoindol-1-one [Example 539]”, the “MDM2 % inhibition at 0.0010” value in assay [1] amounted to 41%@0.0010. Moreover, the IC50 with SJSA-1 was found to be 0.092 µM.
On to “6-{[(1R)-1-(4-chlorophenyl)-7-fluoro-5-[1-(4-fluorooxan-4-yl)-1-hydroxypropyl]-1-[(2R)-2-hydroxypropoxy]-3-oxo-2,3-dihydro-1H-isoindol-2-yl]methyl}pyridine-3-carbonitrile [Example 498]”, for which, in assay [1] (at 0.10 μM), the “MDM2 % inhibition at 0.10” value is given as 32%@0.10. Further, the “SJSA1 (Protocol B) % inhibition at 10” value with SJSA-1 (at 10 μM) is 96% at 10.
Turning to “(3R)-3-(4-chlorophenyl)-2-[(5-chloropyrimidin-2-yl)methyl]-4-fluoro-6-[1-hydroxy-1-(1-methyl-1H-imidazol-4-yl)propyl]-3-[(3S)-oxolan-3-yloxy]-2,3-dihydro-1H-isoindol-1-one [Example 474]”, the “MDM2 % inhibition at 0.030” value in assay [1] (at 0.030 μM) is listed as 38%@0.030. Moreover, the IC50 in the assay with SJSA-1 stood at 1.3 µM.
With “2-{[(1R)-1-(4-chlorophenyl)-7-fluoro-5-[1-hydroxy-1-(1-methyl-1H-imidazol-4-yl)propyl]-3-oxo-1-{[trans-3-hydroxycyclobutyl]methoxy}-2,3-dihydro-1H-isoindol-2-yl]methyl}pyrimidine-5-carbonitrile [Example 483]”, in assay [1], the “MDM2 % inhibition at 0.0010” value stood at 58%@0.0010. The IC50 in the assay with SJSA-1 is 0.2 µM.
With “(3R)-3-(4-chlorophenyl)-2-[(5-chloropyrimidin-2-yl)methyl]-4-fluoro-6-[1-(4-fluoropiperidin-4-yl)-1-hydroxypropyl]-3-[(3S)-oxolan-3-yloxy]-2,3-dihydro-1H-isoindol-1-one [Example 540]”, the “MDM2 % inhibition at 0.030” value in assay [1] (at 0.030 μM) was determined as 33%@0.030. In addition, the IC50 in the assay on SJSA-1 came to 1.8 µM.
For “(3R)-3-(4-chlorophenyl)-2-[(5-chloropyrimidin-2-yl)methyl]-4-fluoro-6-[1-(4-fluoropiperidin-4-yl)-1-hydroxypropyl]-3-[cis-3-hydroxycyclobutoxy]-2,3-dihydro-1H-isoindol-1-one [Example 542]”, the “MDM2 % inhibition at 0.010” value in assay [1] (at 0.010 μM) stood at 57%@0.010. In addition, in the assay on SJSA-1, the IC50 was found to be 3.1 µM.
Regarding “(3R)-3-(4-chlorophenyl)-2-[(5-chloropyridin-2-yl)methyl]-4-fluoro-6-[1-hydroxy-1-(4-methyl-1H-imidazol-2-yl)ethyl]-3-[(1-hydroxycyclopropyl)methoxy]-2,3-dihydro-1H-isoindol-1-one [Example 332]”, the “MDM2 % at concentration” value in assay [1] (at 0.030 μM) worked out at 60%@0.030. The IC50 in the assay with SJSA-1 came out at 2.6 µM.

For the origin of these results see patent US20230338337A1, “BIOMARKERS FOR CANCER THERAPY USING MDM2 ANTAGONISTS” (OTSUKA PHARMACEUTICAL CO., LTD., priority 2019, published 2023).
